What all share (experiment): inhibition of tumour cell growth, NCI panel, 48 h
Assay [1] concerns COLO 205 colon.
Assay [2] concerns MDA-MB-231 breast.
Assay [3] relates to A549 NSCLC.
The test system of assay [4] is MCF7 breast.
Assay [5] concerns SK-MEL-2 melanoma.
The test system of assay [6] is SF-268 CNS.
Assay [7] concerns UACC-62 melanoma.
Assay [8] has as its system MOLT-4 leukemia.
The subject of assay [9] is HOP-92 NSCLC.
In assay [10] the test system is K-562 leukemia.

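Following 48 hours of exposure in 96-well plates, responses at five concentrations were used to interpolate endpoints linearly. GI50 marks 50% less growth. At the TGI there is no net growth.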 Some results are limits rather than exact numbers.

Take `COc1ccc(N(/C=C/C(=O)C(F)(F)F)CC(=O)c2ccc(F)cc2)cc1`: the GI50 in assay [1] was 26.9 µM; in [2], 16.1 µM; in assay [3], 32 µM; in assay [4] it was 43.1 µM; in assay [5], 31.6 µM; in [6], 20.3 µM. Besides, the GI50 in assay [7] is 12 µM; in assay [8] it was 16.1 µM. Also, the TGI in assay [1] was 84.5 µM; in assay [2], 48.4 µM; in [3], > 100 µM; in assay [4], > 100 µM; in assay [5], 67.2 µM; in [6] it was 45.2 µM. Besides, the TGI in assay [7] was 38.3 µM; in assay [8], 43.6 µM.
Take `Cc1nn(-c2ccc(Cl)cc2)c2nc3c(nc12)C(=O)C(=O)c1ccccc1-3`: the GI50 in [1] was 2.03 µM; in assay [2] it was 4.31 µM; in assay [9], 0.18 µM; in assay [3] it was 2.06 µM; in [4], 27.9 µM; in assay [5] it was 4.71 µM. Moreover, the GI50 in assay [6] was 12.4 µM; in [7] it was 8.45 µM; in assay [8], > 100 µM. Further, the TGI is 4.86 µM in [1]; 66.3 µM in [2]; 30.8 µM in assay [9]; 4.08 µM in assay [3]; > 100 µM in assay [4]; 16.2 µM in [5]. Also, the TGI in assay [6] was > 100 µM; in [7] it was 34.4 µM; in [8], > 100 µM.
Take `Cc1[nH]c2ccc(F)cc2c1-c1nc2c3cccnc3c3ncccc3c2[nH]1`: the GI50 is 0.147 µM in assay [1]; 0.277 µM in assay [2]; 0.701 µM in assay [3]; 0.361 µM in [4]; 0.51 µM in assay [5]; 0.205 µM in [6]. Moreover, the GI50 in assay [7] is 0.231 µM; in assay [10], 0.353 µM; in [8], 0.298 µM. Also, the TGI in assay [2] was > 100 µM; in assay [3] it was > 100 µM; in assay [4], > 100 µM; in assay [5], > 100 µM; in assay [6], > 100 µM; in [7] it was 0.678 µM. Also, the TGI in assay [10] and in [8] was > 100 µM in each case.
With `CC(=O)[O][Sn]([CH2]c1ccccc1)([CH2]c1ccccc1)[CH2]c1ccccc1`, the GI50 in [1] is > 5.6 µM; in assay [2] it was > 9.02 µM; in assay [3], > 8.99 µM; in assay [4], > 10 µM; in assay [5], > 8.34 µM; in assay [7] it was > 10 µM. Also, the GI50 in assay [10] was 3.4 µM; in assay [8], > 10 µM. Also, the TGI in [1] is > 6.79 µM; in assay [2] it was > 10 µM; in [3] it was > 10 µM; in [4], > 10 µM; in assay [5], > 10 µM; in [7], > 10 µM. The TGI in [10] was > 4.64 µM; in [8], > 10 µM.
As for `Cc1nn(C)c(COc2ccc(N3CCN(S(=O)(=O)N(C)C)CC3)cc2)c1-c1cccc2c(CCCOc3cccc4ccccc34)c(C(=O)O)n(CCN3CCOCC3)c12`, the GI50 in assay [1] was 2.1 µM; in [2] it was 2.26 µM; in [9], 2.01 µM; in [3] it was 4.49 µM; in [4], 2.84 µM; in assay [5] it was 1.95 µM. Also, the GI50 was 3.66 µM in assay [6], 3.84 µM in assay [10] and 3.52 µM in assay [8]. The TGI came to 4.81 µM in assay [1]; 5.9 µM in [2]; 6.56 µM in assay [9]; 16.9 µM in assay [3]; 11 µM in [4]; 4.35 µM in [5]. Also, the TGI in assay [6] is 15.8 µM; in assay [10] it was > 100 µM; in [8] it was 16.5 µM.
As for `O=[N+]([O-])c1cc(Cl)cnc1Br`, the TGI amounted to 3.12 µM in assay [1]; 12.2 µM in assay [2]; 25.4 µM in [9]; 8.26 µM in assay [3]; 2.84 µM in assay [4]; 5.81 µM in [6]. For the same molecule, the TGI is 4.9 µM in [7], 6.08 µM in assay [10] and 4.52 µM in assay [8].
Regarding `Cc1ccc(-c2csc(NC(=O)N3CCN(c4cc5c(cc4F)c(=O)c(C(=O)O)cn5C4CC4)CC3)n2)cc1`, the GI50 in assay [1] was 1.92 µM; in assay [2] it was 1.78 µM; in assay [9], 0.431 µM; in assay [3], 0.365 µM; in assay [4], 0.49 µM; in assay [5], 1.37 µM. The GI50 in assay [6] is 0.371 µM; in assay [7], 0.63 µM; in assay [10] it was 0.881 µM. For the same molecule, the TGI in assay [1] is 6 µM; in assay [2], 19.4 µM; in assay [9], 3.91 µM; in assay [3] it was > 100 µM; in [4], > 100 µM; in assay [5], 4.36 µM. Moreover, the TGI was > 100 µM in assay [6], 6.29 µM in assay [7] and > 100 µM in assay [10].
With `NCCN.O=C([O-])CN1CCOCC1.[OH-].[Pt+4]`, the GI50 in [1], in [2], in assay [9], in assay [3], in assay [4] and in [5] was > 100 µM each time. Moreover, the GI50 in assay [6], in [7] and in [8] was > 100 µM in each case. Further, the TGI in [1], in [2], in assay [9], in assay [3], in assay [4] and in [5] was > 100 µM each time. The TGI in [6], in assay [7] and in [8] was > 100 µM each time.
On to `OCCn1cnc2c(SCc3ccccc3)ncnc21`, for which the TGI in [1], in [2], in assay [9], in [3], in [4] and in [5] was > 100 µM throughout. Further, the TGI in [6], in assay [7] and in assay [10] was > 100 µM each time.

(Values after PubChem BioAssay (NCI).)
